Patent US11053454B2, “Fragrance compositions comprising essential oils and products comprising same for promoting wellness” (THIS WORKS PRODUCTS LIMITED, priority 2018, dated 2021)
Where two headings read alike, the source gives them in different places.

Test system: primary olfactory cortex (piriform cortex)
Assay: fMRI connectivity analysis with piriform cortex as seed
Assay type: in vivo, human
Method: The pre-processed data were analyzed with the connectivity toolbox in SPM. The primary olfactory cortex (piriform cortex) was used as a seed and the connectivity from this very first olfactory target area to other areas in the brain was modeled. A statistical threshold of 0.05, FDR corrected, was used.

## OCCc1ccccc1 [PEA, Phenylethylalcohol]
  negative connectivity from the piriform cortex: negative connectivity to the posterior cingulate cortex
Listed as control odor
  negative connectivity from the piriform cortex: negative connectivity was detected to the left parietal frontal gyrus
Threshold 0.05 FDR corrected
  overall connectivity: intensity: 170
  overall connectivity: nodes: 41 nodes
